Assay results: patent US6984520B1, “Bioassay for thyroid stimulating antibodies” (University of Wales College of Medicine, priority 1997, dated 2006)

Key:
human TSH-R [1] = target: T1, human TSH-R (Homo sapiens, UniProt P16473); test: luminescent bioassay: light output of lulu 1 cells (JP09 CHO cells expressing human TSH-R, transfected with cAMP-luciferase); assay type: cell-based; settings: concentration as in row: TSH 1 mU/ml, TSAb (90/672) 10 mlU/ml, Forskolin 10^-5M
T1 construct: a pSVL vector containing the coding region of human TSH-R; expressed in transfected cells; host or cells: CHO-K1 clone JP09 (pSVL-hTSHR), further transfected with cAMP-luciferase to give lulu 1 cells
Method: Culture medium for the cells was RPMI; 10% foetal calf serum (FCS); 1% glutamine; 1% pyruvate; 2% penicillin/streptomycin (and 2.5 μg/ml puromycin, when amplifying cells for assay). 96 well plates were seeded with 5×10^4 cells prepared according to Example 1 and cultured overnight (approximately 16 hours) at 37° C. in a water-saturated incubator. They were then cultured for a second night in medium containing 10% charcoal stripped calf serum instead of FCS (available from Gibco). Basal light output was measured, in triplicate wells, in the presence of 100 μl of the medium containing 10% charcoal stripped serum. […] The final result was expressed as relative light units (RLU) obtained by the ratio of standard:basal or test:basal.
Following the incubation period, supernatants were removed from the wells and the cells are washed twice in phosphate buffered saline. Light output was measured using a commercially-available kit from the Promega Corporation, no. […]
The selected clones were cultured overnight in medium with 10% charcoal-stripped calf serum (Sigma) in place of FCS, followed by 4 hours' incubation with varying concentrations of bovine TSH. Light output was measured by luciferase reporter assay (Promega) in a Berthold luminometer. Results were calculated as the ratio of light output in the presence of TSH:light output in the absence of TSH and expressed as relative light units (RLUs). […]

human TSH-R [2] = target: T1, human TSH-R; test: traditional bioassay: cAMP released into culture medium of lulu 1 cells, measured by RIA; assay type: cell-based; settings: NaCl-free Hank's medium, 2 mM IBMX, TSH 1 mU/ml, TSAb (90/672) 10 mlU/ml
Method: 44 of the GD sera described above, (35 TBII (TSH-R) positive) and the TSAb standard, were also assayed in a traditional bioassay in which CAMP released into the culture medium was measured by RIA. Lulu 1 were seeded in 96 well plates and the assay was performed in 100 μl/well NaCl-free Hank's medium, containing 2 mM IBMX and 10 μl individual GD or pooled euthyroid serum. CAMP was measured by the CAMP [^3H] assay system (Amersham) as described by Ludgate et al in Exp Clin Endo 100 73–4.

T1 sequence (P16473 21-764): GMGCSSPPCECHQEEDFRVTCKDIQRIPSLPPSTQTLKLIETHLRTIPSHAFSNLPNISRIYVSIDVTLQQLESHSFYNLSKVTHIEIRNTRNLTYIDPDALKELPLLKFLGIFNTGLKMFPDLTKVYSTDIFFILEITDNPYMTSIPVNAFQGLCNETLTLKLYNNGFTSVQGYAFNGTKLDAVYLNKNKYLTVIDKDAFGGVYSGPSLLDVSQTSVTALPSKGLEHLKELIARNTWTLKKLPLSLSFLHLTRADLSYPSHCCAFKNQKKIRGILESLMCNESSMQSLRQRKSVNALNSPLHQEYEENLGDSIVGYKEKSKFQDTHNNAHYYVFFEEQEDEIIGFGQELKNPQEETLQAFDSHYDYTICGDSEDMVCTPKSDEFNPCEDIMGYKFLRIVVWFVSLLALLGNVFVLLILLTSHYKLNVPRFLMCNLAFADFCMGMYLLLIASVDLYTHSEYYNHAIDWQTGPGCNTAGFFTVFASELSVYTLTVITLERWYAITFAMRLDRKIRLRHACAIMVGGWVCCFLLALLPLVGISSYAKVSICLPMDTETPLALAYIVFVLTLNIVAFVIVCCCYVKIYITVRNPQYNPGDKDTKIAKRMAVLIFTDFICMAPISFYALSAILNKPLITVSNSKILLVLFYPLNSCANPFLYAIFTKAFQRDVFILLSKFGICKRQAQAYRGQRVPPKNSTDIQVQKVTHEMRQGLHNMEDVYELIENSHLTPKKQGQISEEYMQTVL

RLUs (mean luminometer readings (n=3) with background light emission subtracted) (human TSH-R [1]): 1293 RLUs
pmole cAMP (mean, n=2) (human TSH-R [2]): 9.4 pmol
Substance: thyrotropin [TSH]
